# From patent publication US10183015B2, “Heterocyclic compounds and methods of use” (Medivation Technologies LLC, priority 2015, dated 2019)
# Where “and” joins values, the source holds several entries; their conditions need not be identical. Equal values may be shown once.
# Key:
# LDLR = assay: DIN mouse model: hepatic LDLR gene expression; type: in vivo; set-up: key to LDLR 2^DDct: expression relative to vehicle group, normalized to 18S; details: liver, 20 mg/kg group
# Procedure: Gene expression analysis. Hepatic expression levels of genes involved in lipid metabolism (FAS, SREBP1, ACC1, SCD1), cholesterol metabolism (HMG-CoAR, LDLR), SREBP proteolysis (SCAP, INSIG1), ER stress (PERK), oxidative stress (NRF2), inflammation (MCP-1), and fibrosis (collagen 1α1) were quantified by RTqPCR. Expression level was normalized to 18S gene expression and relative expression to vehicle group was calculated with the […] method.
# Male C57Bl/6J mice (8 weeks old) were housed in enriched ventilated cages (31×12.5×12.7 cm) throughout the experimental phase. Animals' cages litters were changed at least once a week. Animal were housed 5 per cage on inverted 12-hour light cycle (at 09:00 am lights off), 22±2° C. and 55±10% relative humidity. The acclimation period was 20 days. During the acclimation period, all mice were fed a standard diet (RM1 (E) 801492, SDS) and tap water ad libitum. After the acclimation period, mice were fed with the DIN diet (60% fat, cholesterol enriched) and fructose-enriched tap water ad libitum until the end of the experiment.
# At 6 weeks of diet, mice were 4-hour fasted (09:00 am to 1:00 pm) and blood (150 μl/EDTA) was collected at 01:00 pm by retro-orbital bleeding under isoflurane anesthesia. Mice were then allocated in 2 homogenous groups (n=12/group) according to their plasma levels of ALT (average levels: 685U/L), AST (average levels: 627U/L) and HOMA-IR index (average value: 4.7), into 2 homogenous groups (see values at day 0 in Tables 15A and 15B ALT/AST and Tables 16A and 16B for HOMA-IR). Mice were then treated once daily by oral gavage with vehicle (Group 1) or Compound #37 at 20 mg/kg (Group 2) for 70 days.
# Hepatic expression levels of genes involved in lipid (FAS, SREBP1, ACC1, SCD1), cholesterol metabolism (HMG-CoAR, LDLR), in SREBP proteolysis (SCAP, INSIG1), in ER stress (PERK), oxidative stress (NRF2), and inflammation (MCP-1) were not changed. However, expression of collagen 1α1, involved in liver fibrosis, was reduced by 66% in mice treated with Compound #37 (p<0.05 vs. vehicle).
# ob/ob mice = assay: ob/ob mice: liver triglycerides, fatty acids, total cholesterol; type: in vivo, mouse; details: 8 weeks; for liver fatty acids / liver total cholesterol / liver triglycerides: ob/ob mice
# Procedure: Groups of mice were either untreated (group 1) or treated for 8 weeks with vehicle (group 2), or with Compound #37 at 5 mg/kg (group 3), 10 mg/kg (group 4), or 20 mg/kg (group 5). Treatment was daily by oral gavage in vehicle (20% HPβCD). Values are presented as mean±standard error of the mean (sem). A t test was performed to compare the untreated group and the vehicle group. Then Compound #37-treated groups were compared to the vehicle-treated group with a 1-way ANOVA+Dunnett's post-test. […] For each test, a p<0.05 was considered significant. Of note, animal #39, group 1 was excluded from the statistical analysis, due to low values for all parameters measured. Some other values were considered as out-liners and excluded from the statistical analysis when the value was far below the mean minus 2 SD. Excluded values are marked with an asterisk in Tables 21-23.
# [1] = system: 60% high fat Paigen diet induced NASH mouse model; assay: Short-term Paigen-diet NASH mouse model: liver Oil Red O staining; type: in vivo; details: 21 days
# Procedure: To investigate whether Compound #37 prevents the development of pathology associated with NASH and steatosis in an acute exploratory disease model, a study was conducted using a diet-induced acute liver steatosis model in mice. As described below, in this study, C57BL/6J mice were initiated on the Paigen diet and simultaneously treated with Compound #37 (5, 20, and 40 mg/kg/day) or vehicle control (20% HPβCD 10 mL/kg/day) by oral gavage for 21 days.
# After acclimation, 8-week old male C57Bl/6J mice (Charles River) weighing about 25 g were randomized in 4 groups according their body weight and treated once daily around noon by oral gavage with vehicle, or Compound #37 at various for 21 days as follows: Group 1: vehicle-20% (2-hydroxypropyl)-β-cyclodextrin (HP-β-CD) (n=10); Group 2: Compound #37, 5 mg/kg (n=10) Group 3: Compound #37, 20 mg/kg (n=10) Group 4: Compound #37, 40 mg/kg (n=10). During the treatment period, body weight and food intake (measured over 24h) were measured 3 times per week and once a week, respectively. During the acclimation, all mice were fed a standard diet (Special Diets Services RM1 (E), product no. 801492) and tap water ad libitum. After the acclimation period, mice were fed until the end of the experiment with a 60% high fat Paigen diet (60 kcal % fat, 1.25% cholesterol, and 0.5% cholate; D11061901, Research Diet) and tap water ad libitum.
# One 0.5 cm^3 piece of liver was frozen in OCT in isopentane and stored at −80° C. for neutral lipid coloration with quantification to evaluate accumulation of neutral lipids in the liver. One section (thickness 5-7 μm) per block was deposited on superfrost+slides for Red Oil staining. Red Oil-stained slides were digitalized at ×20 with the Nanozoomer 2.0 HT. Red Oil labeling was quantified (surface, density): the stained slides were analyzed using an image. All the samples were analyzed within the same range of labeling intensity (0-130), allowing comparison between animals. The intensity scale ranged from 0 to 255 grey levels, in which 0 is the value of a black pixel, and 255 is the value of a white pixel. The staining intensity was calculated as the mean intensity of each pixel composing the labeling signal. For each slide, the percentage (%) of labeling was also calculated: %=(Surface of labeling*100)/section area.
# [2] = individual animals, vs vehicle mean, 20 mg/kg
# [3] = 5 mg/kg daily oral gavage, group mean
# [4] = 5 mg/kg daily oral gavage, individual animal values, 5 mg/kg
# [5] = 10 mg/kg daily oral gavage, group mean
# [6] = 10 mg/kg daily oral gavage, individual animal values, 10 mg/kg
# [7] = 20 mg/kg daily oral gavage, group mean
# [8] = 20 mg/kg daily oral gavage, individual animal values (* = excluded from statistical analysis), 20 mg/kg
compound,measurement,setting,value
"CC(C)Cc1cc(-c2nc(-c3ccc(NS(=O)(=O)C(F)(F)F)cc3Cl)cs2)ccn1 [Compound 37, N-(3-chloro-4-(2-(2-isobutylpyridin-4-yl)thiazol-4-yl)phenyl)-1,1,1-trifluoromethanesulfonamide]",LDLR Dct,"LDLR; individual animals, normalised to 18S, 20 mg/kg",12.37 and 11.75 and 14.3 and 12.94 and 13.5 and 12.33 and 12.03 and 12.22 and 12.97 and 13.44 and 11.28
same,LDLR 2^DDct,LDLR; [2],1.65 and 2.54 and 0.43 and 1.11 and 0.76 and 1.7 and 2.09 and 1.84 and 1.09 and 0.79 and 3.52
same,LDLR DDct,LDLR; [2],−0.73 and −1.35 and 1.2 and −0.16 and 0.4 and −0.77 and −1.07 and −0.88 and −0.13 and 0.34 and −1.82
same,LDLR (Ct),"LDLR; individual animals, 20 mg/kg",24.92 (2×) and 24.3 and 27.14 and 25.37 and 25.85 and 23.76 and 24.73 and 24.47 and 24.99 and 23.63
same,LDLR 2^DDct,"LDLR; mean, n 11",1.59
same,LDLR (Ct),"LDLR; mean, n 11",24.9
same,LDLR DDct,"LDLR; mean, n 11",−0.45
same,LDLR Dct,"LDLR; mean, n 11",12.6
same,hepatic cholesterol concentrations,ob/ob mice,no effect
same,liver fatty acids,ob/ob mice; [3],35.9 nmol/mg liver
same,liver total cholesterol,ob/ob mice; [3],12.5 μg/mg liver
same,liver triglycerides,ob/ob mice; [3],80.3 μg/mg liver
same,liver fatty acids,ob/ob mice; [4],21.39 nmol/mg liver and 38.65 nmol/mg liver and 43.56 nmol/mg liver and 43.68 nmol/mg liver and 42.30 nmol/mg liver and 26.81 nmol/mg liver and 31.47 nmol/mg liver and 34.22 nmol/mg liver and 40.04 nmol/mg liver and 36.50 nmol/mg liver
same,liver total cholesterol,ob/ob mice; [4],9.57 μg/mg liver and 13.21 μg/mg liver and 16.08 μg/mg liver and 15.08 μg/mg liver and 14.41 μg/mg liver and 9.18 μg/mg liver and 10.40 μg/mg liver and 12.19 μg/mg liver and 13.20 μg/mg liver and 13.39 μg/mg liver
same,liver triglycerides,ob/ob mice; [4],32.54 μg/mg liver and 89.34 μg/mg liver and 118.92 μg/mg liver and 123.01 μg/mg liver and 111.66 μg/mg liver and 54.15 μg/mg liver and 66.99 μg/mg liver and 69.20 μg/mg liver and 107.70 μg/mg liver and 29.81 μg/mg liver
same,liver fatty acids,ob/ob mice; [5],47.00 nmol/mg liver
same,liver total cholesterol,ob/ob mice; [5],14.47 μg/mg liver
same,liver triglycerides,ob/ob mice; [5],115.44 μg/mg liver
same,liver fatty acids,ob/ob mice; [6],29.78 nmol/mg liver and 49.10 nmol/mg liver and 42.91 nmol/mg liver and 39.50 nmol/mg liver and 43.38 nmol/mg liver and 48.06 nmol/mg liver and 58.06 nmol/mg liver and 46.42 nmol/mg liver and 53.47 nmol/mg liver and 59.33 nmol/mg liver
same,liver total cholesterol,ob/ob mice; [6],11.02 μg/mg liver and 14.95 μg/mg liver and 15.25 μg/mg liver and 11.27 μg/mg liver and 14.07 μg/mg liver and 16.04 μg/mg liver and 17.20 μg/mg liver and 13.65 μg/mg liver and 14.90 μg/mg liver and 17.30 μg/mg liver
same,liver triglycerides,ob/ob mice; [6],71.81 μg/mg liver and 110.46 μg/mg liver and 96.59 μg/mg liver and 67.76 μg/mg liver and 106.16 μg/mg liver and 153.12 μg/mg liver and 128.22 μg/mg liver and 157.22 μg/mg liver and 124.56 μg/mg liver and 138.07 μg/mg liver
same,liver fatty acids,ob/ob mice; [7],42.4 nmol/mg liver
same,liver total cholesterol,ob/ob mice; [7],13.8 μg/mg liver
same,liver triglycerides,ob/ob mice; [7],106.3 μg/mg liver
same,liver fatty acids,ob/ob mice; [8],46.82 nmol/mg liver and 11.67* nmol/mg liver and 43.19 nmol/mg liver and 56.93 nmol/mg liver and 36.64 nmol/mg liver and 43.21 nmol/mg liver and 40.58 nmol/mg liver and 33.97 nmol/mg liver and 38.27 nmol/mg liver and 41.87 nmol/mg liver
same,liver total cholesterol,ob/ob mice; [8],16.75 μg/mg liver and 7.14* μg/mg liver and 13.56 μg/mg liver and 17.52 μg/mg liver and 11.98 μg/mg liver and 14.67 μg/mg liver and 14.39 μg/mg liver and 13.53 μg/mg liver and 12.83 μg/mg liver and 9.07 μg/mg liver
same,liver triglycerides,ob/ob mice; [8],115.27 μg/mg liver and 10.45* μg/mg liver and 99.74 μg/mg liver and 160.82 μg/mg liver and 71.59 μg/mg liver and 95.60 μg/mg liver and 114.62 μg/mg liver and 92.80 μg/mg liver and 91.36 μg/mg liver and 115.09 μg/mg liver
same,"Liver O red Oil staining, % labeling","[1]; 5 mg/kg p.o. daily, group mean",1.50%
same,"Liver O red Oil staining, % labeling","[1]; 5 mg/kg p.o. daily, individual animals",2.08% and 2.02% and 1.19% and 2.18% and 1.64% and 1.09% and 1.16% and 1.50% and 0.70% and 1.39%
same,"Liver O red Oil staining, % labeling","[1]; 20 mg/kg p.o. daily, group mean",0.93%
same,"Liver O red Oil staining, % labeling","[1]; 20 mg/kg p.o. daily, individual animals",1.53% and 0.81% and 0.29% and 1.11% and 0.92% (2×)
